Results on twelve compounds are retold here after patent US20250074919A1, “Heteroaryl compounds as inhibitors of irak4, compositions and applications thereof” (Accro Bioscience (HK) Limited, priority 2021, published 2025).

Structures can show the parent of a compound that is named as a salt.

In one experiment the target is IRAK4 (Homo sapiens (Human), UniProt Q9NWZ3). Kind of experiment: Screening the compounds against IRAK4 with ATP (Caliper, FAM-labeled peptide). The class given is biochemical. Particulars: IRAK4 kinase inhibition relative to CA4948. As to the method: Prepare Ix kinase base buffer and stop buffer for testing kinases: (1) base buffer: 50 mM HEPES (pH 7.5), 0.0015% Brij-35; (2) stop buffer: 100 mM HEPES (pH 7.5), 0.015% Brij-35, 0.2% Coating Reagent #3, 50 mM EDTA. Then prepare compounds for testing: Dilute the compound to 50× of the final desired highest inhibitor concentration in reaction by 100% DMSO. Transfer 100 μL of this compound dilution to a well in a 96-well plate (source plate).
Sequence of IRAK4 (Q9NWZ3 whole entry): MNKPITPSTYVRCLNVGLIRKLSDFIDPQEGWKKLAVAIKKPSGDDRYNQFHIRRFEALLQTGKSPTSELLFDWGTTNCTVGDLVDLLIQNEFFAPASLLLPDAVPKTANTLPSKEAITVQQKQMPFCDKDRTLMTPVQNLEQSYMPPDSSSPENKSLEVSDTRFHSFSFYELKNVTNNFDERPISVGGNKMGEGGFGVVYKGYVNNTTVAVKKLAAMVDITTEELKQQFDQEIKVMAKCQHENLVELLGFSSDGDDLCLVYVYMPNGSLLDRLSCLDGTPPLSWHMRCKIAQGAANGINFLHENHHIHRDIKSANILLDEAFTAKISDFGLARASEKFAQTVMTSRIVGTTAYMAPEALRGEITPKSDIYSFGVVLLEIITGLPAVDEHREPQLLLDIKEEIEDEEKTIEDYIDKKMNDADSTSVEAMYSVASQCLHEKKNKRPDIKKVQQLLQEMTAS
Serially dilute the compounds by 3-fold for a total of 10 points. Transfer 10 μL of the compound from the source plate to a new 96-well plate (intermediate plate) and add 90 μL of Ix kinase buffer. Shake the mixture on the intermediate plate for 10 min. Transfer 5 μL of each well from the 96-well intermediate plate to a 384-well plate in duplicates. Add 10 μL of 2.5× enzyme solution to each well of the 384-well assay plate and incubate at room temperature for 10 min. Add 10 μL, of 2.5×FAM-labeled peptide and ATP solution and incubate at 28° C. for a period of time. Finally stop the reaction by adding 30 μL of stop buffer and collect data on Caliper to obtain the IC50.
Take `COc1nc2nc(N3CCOCC3)oc2cc1C(=O)Nc1cccc(-c2cnn(C)c2)n1` [Compound A54, 5-Methoxy-N-(6-(1-methyl-1H-pyrazol-4-yl)pyridin-2-yl)-2-morpholinooxazolo[4,5-b]pyridine-6-carboxamide]: the “activity, times better than that of the positive control compound CA4948” value is given as “more than 5 times”.
`Cn1cc(-c2cccc(NC(=O)c3cc4c(nc3O[C@@H]3CCOC3)OC(C)(C)C4)n2)cn1` [Compound B33, (R)-2,2-Dimethyl-N-(6-(1-methyl-1H-pyrazol-4-yl)pyridin-2-yl)-6-((tetrahydrofuran-3-yl)oxy)-2,3-dihydrofuro[2,3-b]pyridine-5-carboxamide]: the “activity, times better than that of the positive control compound CA4948” value was “more than 10 times”.

The experiment is the same for the next values; noted with them: read-out: IC50 (nM) (10 μM ATP).
For the compound `COC1CCN(c2nc3nc(N4CCNCC4)oc3cc2C(=O)Nc2cccc(-c3cnn(C)c3)n2)CC1` [Compound A51, 5-(4-Methoxypiperidin-1-yl)-N-(6-(1-methyl-1H-pyrazol-4-yl)pyridin-2-yl)-2-(piperazin-1-yl)oxazolo[4,5-b]pyridine-6-carboxamide Hydrochloride], the IC50 (commonly the concentration that gives 50% inhibition) was found to be 7 nM.

The same experiment, now with this note: read-out: IC50 (nM) (10 μM ATP); IRAK4 kinase, 10 μM ATP.
As for `N#Cc1cccc(NC(=O)c2cc3oc(N4CCOCC4)nc3nc2N2CCC(O)CC2)n1` [Compound A42, N-(6-Cyanopyridin-2-yl)-5-(4-hydroxypiperidin-1-yl)-2-morpholinooxazolo[4,5-b]pyridine-6-carboxamide], the IC50 came out at 87 nM.
Still for that read-out and setting: the result for `Cn1cc(-c2cccc(NC(=O)c3cc4c(nc3OC(F)F)OC(C)(C)C4)n2)cn1` [Compound B20, 6-(Difluoromethoxy)-2,2-dimethyl-N-(6-(1-methyl-1H-pyrazol-4-yl)pyridin-2-yl)-2,3-dihydrofuro[2,3-b]pyridine-5-carboxamide] reads 27 nM; that for `CC(Oc1nc2c(cc1C(=O)Nc1cccc(-c3cnn(C)c3)n1)CC(C)(C)O2)C1CC1` (centres unmarked) [Compound B26, 6-(1-Cyclopropylethoxy)-2,2-dimethyl-N-(6-(1-methyl-1H-pyrazol-4-yl)pyridin-2-yl)-2,3-dihydrofuro[2,3-b]pyridine-5-carboxamide], 13 nM; that for `Cn1cc(-c2cccc(NC(=O)c3cc4c(nc3O)OC(C)(C)C4)n2)cn1` [Compound B34], 243 nM.
Still for that read-out and setting: the result for `CN1CCC(Oc2nc3c(cc2C(=O)Nc2cccc(-c4cnn(C)c4)n2)CC(C)(C)O3)C1` (centres unmarked) [Compound B21, 2,2-Dimethyl-N-(6-(1-methyl-1H-pyrazol-4-yl)pyridin-2-yl)-6-((1-methylpyrrolidin-3-yl)oxy)-2,3-dihydrofuro[2,3-b]pyridine-5-carboxamide] reads 75 nM.
Still for that read-out and setting: the result for `COc1nc2nc(N3CCOCC3)oc2cc1C(=O)Nc1cccc(-c2cnn(C)c2)n1` [Compound A54, 5-Methoxy-N-(6-(1-methyl-1H-pyrazol-4-yl)pyridin-2-yl)-2-morpholinooxazolo[4,5-b]pyridine-6-carboxamide] reads 21 nM; that for `CN1CCN(c2nc3nc(N4CCOCC4)oc3cc2C(=O)Nc2cccc(-c3cnn(C)c3)n2)CC1` [Compound A3, N-(6-(1-methyl-1H-pyrazol-4-yl)pyridin-2-yl)-5-(4-methylpiperazin-1-yl)-2-morpholinooxazolo[4,5-b]pyridine-6-carboxamide], 43 nM; that for `Cn1cc(-c2cccc(NC(=O)c3cc4c(nc3O[C@@H]3CCOC3)OC(C)(C)C4)n2)cn1` [Compound B33, (R)-2,2-Dimethyl-N-(6-(1-methyl-1H-pyrazol-4-yl)pyridin-2-yl)-6-((tetrahydrofuran-3-yl)oxy)-2,3-dihydrofuro[2,3-b]pyridine-5-carboxamide], 8.9 nM.
Consider `Cn1cc(-c2cccc(NC(=O)c3cc4oc(N5CCOCC5)nc4nc3N3CCN4CCC[C@H]4C3)n2)cn1` [Compound A27, (S)-5-(Hexahydropyrrolo[1,2-a]pyrazin-2(1H)-yl)-N-(6-(1-methyl-1H-pyrazol-4-yl)pyridin-2-yl)-2-morpholinooxazolo[4,5-b]pyridine-6-carboxamide], for which the IC50 was determined as 81 nM.
Take `CCOc1nc2c(cc1C(=O)Nc1cccc(-c3cnn(C)c3)n1)CC(C)(C)O2` [Compound B12, 6-Ethoxy-2,2-dimethyl-N-(6-(1-methyl-1H-pyrazol-4-yl)pyridin-2-yl)-2,3-dihydrofuro[2,3-b]pyridine-5-carboxamide]: the IC50 was determined as 9.2 nM.
`Cn1cc(-c2cccc(NC(=O)c3cc4oc(N5CCOCC5)nc4nc3N3CC4(CC(O)C4)C3)n2)cn1` [Compound A22, 5-(6-Hydroxy-2-azaspiro[3.3]heptan-2-yl)-N-(6-(1-methyl-1H-pyrazol-4-yl)pyridin-2-yl)-2-morpholinooxazolo[4,5-b]pyridine-6-carboxamide]: the IC50 is 188 nM.
